The assay concerns K562 human chronic myeloid leukaemia cells. Briefly: K562 assay (MTT cytotoxicity of released compounds). The conditions noted are these: drug for 1 hour or 96 hours, MTT readout. In kind it is cell-based. How it is done:
K562 human chronic myeloid leukaemia cells were maintained in RPM1 1640 medium supplemented with 10% fetal calf serum and 2 mM glutamine at 37° C. in a humidified atmosphere containing 5% CO2 and were incubated with a specified dose of drug for 1 hour or 96 hours at 37° C. in the dark. The incubation was terminated by centrifugation (5 min, 300 g) and the cells were washed once with drug-free medium. Following the appropriate drug treatment, the cells were transferred to 96-well microtiter plates (10^4 cells per well, 8 wells per sample). Plates were then kept in the dark at 37° C. in a humidified atmosphere containing 5% CO2. The assay is based on the ability of viable cells to reduce a yellow soluble tetrazolium salt, 3-(4,5-dimethylthiazol-2-yl)-2,5-diphenyl-2H-tetrazolium bromide (MTT, Aldrich-Sigma), to an insoluble purple formazan precipitate. Following incubation of the plates for 4 days (to allow control cells to increase in number by approximately 10 fold), 20 μL of MTT solution (5 mg/mL in phosphate-buffered saline) was added to each well and the plates further incubated for 5 h. The plates were then centrifuged for 5 min at 300 g and the bulk of the medium pipetted from the cell pellet leaving 10-20 μL per well. […] The optical density was then read at a wavelength of 550 nm on a Titertek Multiscan ELISA plate reader, and a dose-response curve was constructed.

pIC50: −log10 of the molar value.

A word on the pIC50: it is the IC50 on a negative log10 scale, so that one unit is a factor of ten. As to `COc1cc2c(cc1OCCCCCOc1cc3c(cc1OC)C(=O)N1C=C(C)C[C@H]1C=N3)N=C[C@@H]1CC(C)=CN1C2=O` [RelE], the pIC50 is 9.37.

(Values after patent publication US10695433B2, “Pyrrolobenzodiazepine-antibody conjugates” (MEDIMMUNE LIMITED, priority 2012, dated 2020).)
